A word on the GI50: it is the concentration at which growth is held to half of that of the control.

Molecules are shown by their SMILES. Read-outs that look alike come from different tables or passages of the source. Marks after values point to notes of the source that are not given here. Bounds are passed on as bounds.

We go through five compounds from patent US7781439B2, “Pyrazolopyrimidines” (Bayer CropScience AG, priority 2005, dated 2010).

One data set is described as follows: log P determination. Format: physicochemical. Conditions: values marked *, acetonitrile/0.1% aqueous phosphoric acid.
The next data set concerns A375 cells. Kind of data set: LIVE/DEAD cytotoxicity assay, inhibition of cell proliferation, A375. The conditions noted are these: for GI50: Homo sapiens, read-out: log GI50 values (M), A375 cells (converted). Type of data set: cell-based, human. As to the method: (§1) Compounds of the present invention were tested for a possible cytotoxic or proliferation-inhibiting activity on the human tumour cell lines HeLa, SW620 and A375 (all from ATCC, American Type Culture Collection). To this end, the cells were plated in microtitre plates from Greiner (manufacturer No. 781092) at a cell density of 1000 cells/microtitre plate well and cultivated in cell culture medium at 37° C. under a 5% carbon dioxide atmosphere. Cell culture media and additives were purchased from Invitrogen and the foetal calf serum from Biochrom. The cell culture media for HeLa and A375 cells were used as stated by ATCC (HeLa: MEM, order No. 10370-047, with 1% sodium bicarbonate, 1% non-essential amino acids, 1% sodium pyruvate, 10% foetal calf serum, 0.1% gentamycin; A375: DMEM, order No. 41965-039, 2% sodium bicarbonate, 1% L-Glutamax, 10% foetal calf serum, 0.1% gentamycin). The culture medium for the SW620 cells consisted of DMEM, order No. 41965-039, 1% non-essential amino acids, 10% foetal calf serum, 0.1% gentamycin.
(§2) 24 hours after the cells had been plated in the microtitre plates, various concentrations of at most 100 μM down to a minimum concentration of 5 nM of the test compounds were added to the cells. Stock solutions of the test compounds (10 mM) were prepared in DMSO and stored at −20° C. For the cytotoxicity tests, the test compounds were diluted in the appropriate cell culture medium.
(§3) After a further 48 hours of incubation, the cells were washed with medium and analysed with the aid of a two-colour fluorescence cytotoxicity/viability test (LIVE/DEAD Viability/Cytotoxicity ASSAY Kit from Molecular Probes, order No. L-3224), according to the instructions of the manufacturer. To this end, the medium was aspirated and in each case 30 μl of LIVE/DEAD reagent per microtitre plate well were added to the cells, which were then incubated for 30 minutes. The cells were then washed with PBS (phosphate-buffered saline). The number of live cells was analysed by measuring the green fluorescence of the live dye calcein-AM as a component of the LIVE/DEAD reagent using a fluorescence plate reader (Flexstation, from Molecular Devices) at an excitation wavelength of 485 nm and an emission wavelength of 525 nm (Oral et al. 1998). Cells only with cell culture medium, without added test compounds, were treated in parallel and analysed as growth controls. The reference compounds used for anti-tumour agents having a cytotoxic or proliferation-inhibiting action were colchicine (from Merck/Calbiochem, order No 234115) and Taxol (baccatin III N-benzyl-b-phenylisoserine ester, from Merck/Calbiochem, order No. 580555) (Schiff and Horwitz 1980; Holmes et al., 1991). The cytotoxic effects of the test compounds were expressed as logarithmic GI50 values ((growth)-inhibiting logarithmic concentration value at which a cell growth reduced by 50% compared to the control without test compounds was measured; Xia et al., 2001; Smith et al., 2005).

The next data set concerns SW620 cells. Kind of data set: LIVE/DEAD cytotoxicity assay, inhibition of cell proliferation, SW620. Format: cell-based, human. Conditions: for GI50: Homo sapiens, read-out: log GI50 values (M), SW620 cells (converted). As to the method:
as §1, §2, §3

The subject of the next data set is HeLa cells. The experiment in a line: LIVE/DEAD cytotoxicity assay, inhibition of cell proliferation, HeLa. Type of data set: cell-based, human. Conditions: for GI50: Homo sapiens, read-out: log GI50 values (M), HeLa cells (converted). The procedure: as §1, §2, §3
Setting [1] is: no footnote carries the single asterisk, general footnote: HPLC gradient method.
Where [2] appears, read: A375 cells, 48 hours incubation, calcein-AM fluorescence.
[3] abbreviates: SW620 cells, 48 hours incubation, calcein-AM fluorescence.
Where [4] appears, read: HeLa cells, 48 hours incubation, calcein-AM fluorescence.

For the compound `C[C@H](Nc1c(-c2c(F)cc(F)cc2Cl)c(Cl)nc2c(C(=O)NS(C)(=O)=O)cnn12)C(F)(F)F` [Example 117], the log p in “log P determination” (setting [1]) is given as 3.56*. For the same compound, the “log GI50 values (M), A375 cells” value with A375 cells (setting [2]) is 6.6 M. Besides, the “log GI50 values (M), SW620 cells” value in the data set with SW620 cells (setting [3]) is on record as 6.6 M. For the same compound, the “log GI50 values (M), HeLa cells” value with HeLa cells (setting [4]) is 6.8 M.

As to `CC(C)[C@@H](C)Nc1c(-c2c(F)cc(F)cc2F)c(Cl)nc2c(C(=O)NS(C)(=O)=O)cnn12` [Example 177], the log p in “log P determination” (setting [1]) is on record as 3.85*. Besides, the “log GI50 values (M), A375 cells” value in the data set on A375 cells (setting [2]) is 8.1 M. Further, the “log GI50 values (M), SW620 cells” value in the data set with SW620 cells (setting [3]) was 6.7 M. Further, the “log GI50 values (M), HeLa cells” value in the data set on HeLa cells (setting [4]) was more than 8 M.

With `CC(C)Nc1c(-c2c(F)cc(F)cc2F)c(Cl)nc2c(C(=O)NS(C)(=O)=O)cnn12` [Example 345], in the data set “log P determination” (HPLC, gradient method, EEC Directive 79/831 Annex V. A8), the log p is listed as 3.24*. Also, the “log GI50 values (M), A375 cells” value with A375 cells (setting [2]) is given as 6.3 M. The “log GI50 values (M), SW620 cells” value with SW620 cells (setting [3]) was 6.4 M. Also, the “log GI50 values (M), HeLa cells” value in the data set on HeLa cells (setting [4]) is reported as 6.6 M.

As for `CC(=O)O[C@H]1C(=O)[C@@]2(C)[C@H]([C@H](OC(=O)c3ccccc3)[C@]3(O)C[C@H](OC(=O)[C@H](O)[C@@H](NC(=O)c4ccccc4)c4ccccc4)C(C)=C1C3(C)C)[C@]1(OC(C)=O)CO[C@@H]1C[C@@H]2O` [Taxol, reference compound], the GI50 in the data set with A375 cells (A-375, A375 cells, 48 hours incubation, calcein-AM fluorescence) was 2e-07 M; in the data set with SW620 cells (SW-620, SW620 cells, 48 hours incubation, calcein-AM fluorescence), 1.26e-07 M; with HeLa cells (setting [4]), 1.58e-08 M.

On to `COc1cc2c(c(OC)c1OC)-c1ccc(OC)c(=O)cc1[C@@H](NC(C)=O)CC2` [colchicine, reference compound], for which the GI50 is 2e-08 M in the data set with A375 cells (A-375, 48 h); 3.16e-08 M in the data set with SW620 cells (SW-620, 48 h); 1.58e-08 M in the data set with HeLa cells (HeLa, 48 h).
